Assay results: publication PMC9443684 (RSC Advances, 2022)

Key:
[1] = target: EGFR (Homo sapiens, UniProt P00533); test: In vitro EGFR-TK inhibition assay; assay type: biochemical
[2] = test system: HCT-116 cancer cell line; test: MTT assay, anticancer activity against HCT-116; assay type: cell-based; conditions: Homo sapiens; for IC50: HCT-116, 48 h, read-out: Anticancer activity IC50; for inhibition at 10 µM: HCT-116, read-out: Cell growth inhibition (GI%)
[3] = test system: MCF-7 cancer cell line; test: MTT assay, anticancer activity against MCF-7; assay type: cell-based; conditions: Homo sapiens; for IC50: MCF7, 48 h, read-out: Anticancer activity IC50; for inhibition at 10 µM: MCF7, read-out: Cell growth inhibition (GI%)
[4] = target: T1, COX-2 (Ovis aries, UniProt P79208); test: In vitro cyclooxygenase; assay type: biochemical, ovine; conditions: for SI (selectivity index): IC50 (COX-1)/IC50 (COX-2)
T1 sequence (P79208 17-603): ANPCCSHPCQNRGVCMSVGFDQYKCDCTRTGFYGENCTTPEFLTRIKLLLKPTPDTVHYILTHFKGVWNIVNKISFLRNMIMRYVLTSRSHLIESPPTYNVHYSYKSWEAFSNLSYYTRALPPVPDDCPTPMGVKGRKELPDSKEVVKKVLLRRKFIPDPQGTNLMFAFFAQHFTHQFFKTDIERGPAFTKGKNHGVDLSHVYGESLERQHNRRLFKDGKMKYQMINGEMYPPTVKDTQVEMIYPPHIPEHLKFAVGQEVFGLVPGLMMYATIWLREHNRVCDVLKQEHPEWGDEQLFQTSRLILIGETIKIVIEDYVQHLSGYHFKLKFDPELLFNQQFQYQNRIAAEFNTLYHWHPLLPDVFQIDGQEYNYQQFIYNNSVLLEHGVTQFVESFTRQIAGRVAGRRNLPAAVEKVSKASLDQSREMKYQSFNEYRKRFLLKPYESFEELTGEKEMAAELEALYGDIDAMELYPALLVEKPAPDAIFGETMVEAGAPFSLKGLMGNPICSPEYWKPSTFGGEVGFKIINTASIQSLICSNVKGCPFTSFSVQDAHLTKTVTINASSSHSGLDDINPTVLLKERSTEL

[5] = test system: HepG2 cancer cell line; test: MTT assay, anticancer activity against HepG2; assay type: cell-based; conditions: Homo sapiens; for IC50: HepG2, 48 h, read-out: Anticancer activity IC50; for inhibition at 10 µM: HepG2, read-out: Cell growth inhibition (GI%)
[6] = target: T2, COX-1 (Ovis aries, UniProt P05979); test: In vitro cyclooxygenase; assay type: biochemical, ovine
T2 sequence (P05979 25-600): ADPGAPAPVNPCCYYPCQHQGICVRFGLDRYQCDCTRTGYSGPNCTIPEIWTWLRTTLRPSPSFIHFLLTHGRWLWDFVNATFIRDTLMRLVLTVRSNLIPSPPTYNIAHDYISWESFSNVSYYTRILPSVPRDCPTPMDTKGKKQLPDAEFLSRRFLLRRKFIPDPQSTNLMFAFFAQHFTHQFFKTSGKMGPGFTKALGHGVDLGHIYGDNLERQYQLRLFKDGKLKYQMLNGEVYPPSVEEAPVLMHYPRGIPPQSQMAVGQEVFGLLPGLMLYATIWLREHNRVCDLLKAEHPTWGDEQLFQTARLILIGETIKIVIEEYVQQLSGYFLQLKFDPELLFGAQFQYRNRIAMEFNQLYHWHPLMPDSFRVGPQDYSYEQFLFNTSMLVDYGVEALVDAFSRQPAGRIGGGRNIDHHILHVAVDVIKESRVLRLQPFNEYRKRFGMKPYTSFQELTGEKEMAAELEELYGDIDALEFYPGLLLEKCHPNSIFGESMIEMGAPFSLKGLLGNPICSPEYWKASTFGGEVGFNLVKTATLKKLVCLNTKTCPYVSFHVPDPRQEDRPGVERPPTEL

[7] = test system: MCF-7, HepG2 and HCT-116 cancer cell lines; test: MTT assay, statements over the three cancer cell lines together; assay type: cell-based; conditions: for IC50: read-out: Anticancer activity IC50 against the three cancer cell lines; for inhibition at 10 µM: read-out: Growth inhibition against the three cancer cell lines

Chain of EGFR (P00533 25-1210): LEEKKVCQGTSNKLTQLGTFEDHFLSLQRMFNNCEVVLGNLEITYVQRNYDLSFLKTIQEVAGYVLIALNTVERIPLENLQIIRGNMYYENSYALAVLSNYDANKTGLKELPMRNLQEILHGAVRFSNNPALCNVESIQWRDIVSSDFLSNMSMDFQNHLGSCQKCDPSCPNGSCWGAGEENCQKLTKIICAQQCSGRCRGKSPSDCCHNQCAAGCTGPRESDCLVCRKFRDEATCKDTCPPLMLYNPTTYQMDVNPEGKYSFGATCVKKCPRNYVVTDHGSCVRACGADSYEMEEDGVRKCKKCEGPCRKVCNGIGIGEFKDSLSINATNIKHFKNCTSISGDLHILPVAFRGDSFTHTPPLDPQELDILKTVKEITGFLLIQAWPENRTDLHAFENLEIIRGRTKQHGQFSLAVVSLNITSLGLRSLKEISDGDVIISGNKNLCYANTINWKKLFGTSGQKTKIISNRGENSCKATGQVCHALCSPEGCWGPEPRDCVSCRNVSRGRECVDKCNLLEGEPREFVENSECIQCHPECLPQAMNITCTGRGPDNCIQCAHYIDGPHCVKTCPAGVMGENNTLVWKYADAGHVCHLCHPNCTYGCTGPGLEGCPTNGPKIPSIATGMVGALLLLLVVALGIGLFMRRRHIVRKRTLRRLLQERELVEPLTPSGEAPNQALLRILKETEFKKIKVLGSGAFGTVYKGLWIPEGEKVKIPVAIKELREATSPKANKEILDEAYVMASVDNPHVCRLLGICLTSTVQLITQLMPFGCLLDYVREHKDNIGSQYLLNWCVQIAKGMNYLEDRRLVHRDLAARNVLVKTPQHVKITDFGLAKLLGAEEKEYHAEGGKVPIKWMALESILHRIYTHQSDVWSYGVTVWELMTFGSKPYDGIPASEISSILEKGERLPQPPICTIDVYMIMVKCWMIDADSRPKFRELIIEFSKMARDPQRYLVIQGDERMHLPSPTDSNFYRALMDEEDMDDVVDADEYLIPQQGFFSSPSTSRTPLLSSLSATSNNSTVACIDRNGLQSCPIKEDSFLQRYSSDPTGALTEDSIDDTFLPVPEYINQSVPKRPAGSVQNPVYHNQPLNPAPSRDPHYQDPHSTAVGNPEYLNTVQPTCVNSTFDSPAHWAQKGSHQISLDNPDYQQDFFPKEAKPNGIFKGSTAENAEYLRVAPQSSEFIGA

| SMILES | IC50 [1] [µM] | IC50 [2] [µM] | inhibition at 10 µM [2] [%] | IC50 [3] [µM] | inhibition at 10 µM [3] [%] | IC50 [4] [µM] | SI (selectivity index) [4] | IC50 [5] [µM] | inhibition at 10 µM [5] [%] | IC50 [6] [µM] | IC50 [7] [µM] | inhibition at 10 µM [7] [%] |
| --- | --- | --- | --- | --- | --- | --- | --- | --- | --- | --- | --- | --- |
| Cn1c(=O)c(C(=O)NNC(=S)Nc2ccccc2)nc2ccccc21 [Compound 13, 2-(4-Methyl-3-oxo-3,4-dihydroquinoxaline-2-carbonyl)-N-phenylhydrazine-carbothioamide] | 0.4 ± 0.02 | 1.12 ± 0.19 | 97.87 ± 0.19 | 0.81 ± 0.13 | 95.39 ± 0.27 | 0.46 ± 0.06 | 66.11 | 0.96 ± 0.09 | 96.75 ± 0.29 | 30.4 ± 1.63 | 0.81 to 2.91 | ≥ 88.7 |
| Cn1c(=O)c(C(=O)N/N=C/c2ccc(Cl)cc2)nc2ccccc21 [Compound 2b, (E)-N′-(4-chlorobenzylidene)-4-methyl-3-oxo-3,4-dihydroquinoxaline-2-carbohydrazide] |  | 16.3 ± 0.24 | 88.68 ± 0.52 | 15.98 ± 0.06 | 95.5 ± 1.25 | 5.26 ± 0.49 | 0.84 | 12.41 ± 0.05 | 90.76 ± 0.29 | 4.42 ± 1.67 | > 10 |  |
| COc1cccc2c1C(=O)c1c(O)c3c(c(O)c1C2=O)C[C@@](O)(C(=O)CO)C[C@@H]3O[C@H]1C[C@H](N)[C@H](O)[C@H](C)O1 [Doxorubicin, doxorubicin, reference compound] |  | 0.51 ± 0.03 |  | 0.9 ± 0.02 |  |  |  | 1.21 ± 0.08 |  |  |  |  |
| Cn1c(=O)c(C(=O)N/N=C/C(O)C(O)C(O)C(O)CO)nc2ccccc21 (stereo not drawn) [Compound 7, (E)-4-Methyl-3-oxo-N′-(2,3,4,5,6-pentahydroxyhexylidene)-3,4-dihydroquinoxaline-2-carbohydrazide] |  |  | 33.9 ± 1.27 |  | 10.3 ± 0.48 |  |  |  | 26.4 ± 0.83 |  |  |  |
| C/C(=N\NC(=O)c1nc2ccccc2n(C)c1=O)c1cc2ccccc2oc1=O [Compound 5, (E)-4-Methyl-3-oxo-N′-(1-(2-oxo-2H-chromen-3-yl)ethylidene)-3,4-dihydroquinoxaline-2-carbohydrazide] | 0.9 ± 0.01 | 3.46 ± 0.15 | 93.75 ± 0.29 | 3.21 ± 0.1 | 91.47 ± 0.25 | 0.83 ± 0.4 | 48.58 | 3.62 ± 0.21 | 90.79 ± 0.21 | 40.3 ± 3.35 | 3.21 to 4.54 | ≥ 88.7 |
| CN1c2ccccc2N=C(C(=O)NN)C1N=N (stereo not drawn) [Compound 10, 3-Diazenyl-4-methyl-3,4-dihydroquinoxaline-2-carbohydrazide] |  |  | 86.6 ± 1.31 |  | 49.8 ± 0.86 |  |  |  | 52.4 ± 0.69 |  |  |  |
| Cn1c(=O)c(C(=O)N/N=C/C(O)C(O)C(O)CO)nc2ccccc21 (stereo not drawn) [Compound 6, (E)-4-Methyl-3-oxo-N′-(2,3,4,5-tetrahydroxypentylidene)-3,4-dihydroquinoxaline-2-carbohydrazide] |  |  | 41.8 ± 1.27 |  | 10.8 ± 0.76 |  |  |  | 21.4 ± 0.52 |  |  |  |
| CC(=O)C/C(=N/NC(=O)c1nc2ccccc2n(C)c1=O)c1ccccc1 [Compound 9, (Z)-4-methyl-3-oxo-N′-(3-oxo-1-phenylbutylidene)-3,4-dihydroquinoxaline-2-carbohydrazide] |  | 8.75 ± 0.25 | 97.89 ± 0.69 | 6.84 ± 0.07 | 92.97 ± 0.54 | 2.21 ± 0.14 | 17.52 | 5.54 ± 0.27 | 96.83 ± 0.29 | 38.7 ± 1.27 |  | ≥ 88.7 |
| Cn1c(=O)c(C(=O)N/N=C2\C(=O)Nc3ccccc32)nc2ccccc21 [Compound 4a, (Z)-4-Methyl-3-oxo-N′-(2-oxoindolin-3-ylidene)-3,4-dihydroquinoxaline-2-carbohydrazide] | 0.3 ± 0.01 | 4.54 ± 0.19 | 92.79 ± 0.15 | 4.42 ± 0.12 | 90.14 ± 0.76 | 1.17 ± 0.15 | 24.61 | 4.23 ± 0.09 | 91.82 ± 0.35 | 28.8 ± 1.02 | 3.21 to 4.54 | ≥ 88.7 |
| Cn1c(=O)c(-c2n[nH]c(=S)o2)nc2ccccc21 [Compound 15, 1-Methyl-3-(5-thioxo-4,5-dihydro-1,3,4-oxadiazol-2-yl)quinoxalin-2(1H)-one] |  |  | 76.3 ± 1.22 |  | 43.5 ± 0.63 |  |  |  | 59.5 ± 1.92 |  |  |  |
| Cc1cc(C)n(C(=O)c2nc3ccccc3n(C)c2=O)n1 [Compound 12, 3-(3,5-Dimethyl-1H-pyrazole-1-carbonyl)-1-methylquinoxalin-2(1H)-one] |  |  | 49.2 ± 1.23 |  | 33.5 ± 0.82 |  |  |  | 53.8 ± 1.38 |  |  |  |
| Cn1c(=O)c(-c2nnco2)nc2ccccc21 [Compound 14, 1-Methyl-3-(1,3,4-oxadiazol-2-yl)quinoxalin-2(1H)-one] |  |  | 33.3 ± 1.32 |  | 29.3 ± 0.63 |  |  |  | 25.7 ± 1.67 |  |  |  |
| Cn1c(=O)c(C(=O)NN=Cc2ccc(O)cc2)nc2ccccc21 [Compound 2c, N′-(4-hydroxybenzylidene)-4-methyl-3-oxo-3,4-dihydroquinoxaline-2-carbohydrazide] |  |  | 61.92 ± 0.55 |  | 69.72 ± 0.46 |  |  |  | 77.95 ± 0.56 |  |  | ≥ 88.7 |
| Cn1c(=O)c(C(=O)N/N=C/c2ccc3c(c2)OCO3)nc2ccccc21 [Compound 2d, (E)-N′-(benzo[d][1,3]dioxol-5-ylmethylene)-4-methyl-3-oxo-3,4-dihydroquinoxaline-2-carbohydrazide] |  |  | 59.5 ± 0.78 |  | 50.14 ± 0.46 |  |  |  | 56.95 ± 0.35 |  |  |  |
| CN1C(=O)/C(=N\NC(=O)c2nc3ccccc3n(C)c2=O)c2ccccc21 [Compound 4b, (Z)-4-Methyl-N′-(1-methyl-2-oxoindolin-3-ylidene)-3-oxo-3,4-dihydroquinoxaline-2-carbohydrazide] |  |  | 59.46 ± 0.27 |  | 61.47 ± 0.37 |  |  |  | 52.4 ± 0.74 |  |  |  |
| Cn1c(=O)c(C(=O)NN=Cc2ccccc2)nc2ccccc21 [Compound 2a, N′-benzylidene-4-methyl-3-oxo-3,4-dihydroquinoxaline-2-carbohydrazide] |  |  | 69.25 ± 0.45 |  | 82.85 ± 0.49 |  |  |  | 89.21 ± 0.63 |  |  |  |
| Cn1c(=O)c(C(=O)NNC(=O)CC(=O)c2ccccc2)nc2ccccc21 [Compound 11, 4-Methyl-3-oxo-N′-(3-oxo-3-phenylpropanoyl)-3,4-dihydroquinoxaline-2-carbohydrazide] | 0.6 ± 0.04 | 2.38 ± 0.26 | 97.63 ± 0.16 | 2.91 ± 0.23 | 92.57 ± 0.43 | 0.62 ± 0.07 | 61.23 | 2.41 ± 0.07 | 92.78 ± 0.38 | 38 ± 0.66 | 0.81 to 2.91 | ≥ 88.7 |
